From the supplement of paper PMC10307832

The cell lines below were run with C1=CC2=C(C=C(C(=C2N=C1)O)N=NC3=CC4=C(C=C3)C=C(C=C4)S(=O)(=O)O)S(=O)(=O)O + Cc1cc(Nc2cc(N3CCN(C)CC3)nc(Sc3ccc(NC(=O)C4CC4)cc3)n2)n[nH]1 [Tozasertib] (partner 0.1 µM) (assay: relative viability (nuclei count vs DMSO), 5 days (fraction); higher = more cells survive). Details: first compound 0.08 µM.
Summary of the method: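 Five library-drug doses in √10 steps were combined with a fixed anchor-drug dose, or a single drug was given alone, by pin tool to lung cancer cell lines in 1536-well plates the day after seeding. Nuclei were stained and counted after 5 days. Relative viability is the nuclei count in treated wells over that in vehicle wells, taken as the median of duplicate plates.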
With LK-2 the relative viability was 0.174. Work on NCI-H2087 yielded a relative viability of 0.237. For NCI-H1648, the relative viability was 0.432. Cell Line SK-MES-1 has a relative viability of 1.01. Cell Line H3255 has a relative viability of 0.59. COR-L23 gave a relative viability of 0.22. Work on COR-L 105 yielded a relative viability of 0.355. In the case of LOU-NH91, the relative viability is reported as 0.77. Work on ChaGo-K-1 yielded a relative viability of 0.238. NCI-H2170 was tested, and the relative viability was 0.678. Work on NCI-H2405 yielded a relative viability of 0.894. NCI-H522 showed a relative viability of 0.583. In the case of SW 900, the relative viability is reported as 0.566. Cell Line NCI-H2009 has a relative viability of 0.766. For NCI-H661, the relative viability was 0.333. Work on SK-LU-1 yielded a relative viability of 0.32. NCI-H2228 gave a relative viability of 0.264. NCI-H2023 showed a relative viability of 0.398.

Same assay, conditions: first compound 0.253 µM
With NCI-H2342 the relative viability was 0.576. NCI-H1623 gave a relative viability of 0.416. NCI-H727 gave a relative viability of 0.653. NCI-H1650 was tested, and the relative viability was 0.347. Cell Line NCI-H1993 has a relative viability of 0.576. With SW 1573 the relative viability was 0.185. NCI-H838 was tested, and the relative viability was 0.214. LCLC-103H gave a relative viability of 0.504. In the case of NCI-H520, the relative viability is reported as 0.454. NCI-H2126 gave a relative viability of 0.824. With EMC-BAC-2 the relative viability was 0.29. In the case of NCI-H2085, the relative viability is reported as 0.742. HCC-366 gave a relative viability of 0.0806. NCI-H1666 gave a relative viability of 0.628. With NCI-H596 the relative viability was 0.926. Cell Line LK-2 has a relative viability of 0.189. For NCI-H2087, the relative viability was 0.258. Work on NCI-H1648 yielded a relative viability of 0.422. With SK-MES-1 the relative viability was 0.888. In the case of H3255, the relative viability is reported as 0.705. COR-L23 was tested, and the relative viability was 0.173. Work on COR-L 105 yielded a relative viability of 0.37. LOU-NH91 gave a relative viability of 0.667. With ChaGo-K-1 the relative viability was 0.198. NCI-H2170 gave a relative viability of 0.714. NCI-H2405 showed a relative viability of 0.811. With HCC-44 the relative viability was 0.853. NCI-H522 was tested, and the relative viability was 0.556. SW 900 was tested, and the relative viability was 0.559. NCI-H2009 showed a relative viability of 0.756. With NCI-H661 the relative viability was 0.347. SK-LU-1 showed a relative viability of 0.286. For NCI-H2228, the relative viability was 0.269. In the case of NCI-H2023, the relative viability is reported as 0.311.

Same assay, conditions: first compound 0.8 µM
NCI-H2342 showed a relative viability of 0.566. Work on NCI-H1623 yielded a relative viability of 0.458. In the case of NCI-H727, the relative viability is reported as 0.87. NCI-H1650 was tested, and the relative viability was 0.45. NCI-H1993 showed a relative viability of 0.581. Cell Line SW 1573 has a relative viability of 0.187. NCI-H838 gave a relative viability of 0.272. Cell Line LCLC-103H has a relative viability of 0.457. Cell Line NCI-H520 has a relative viability of 0.439. Work on NCI-H2126 yielded a relative viability of 0.843. Cell Line EMC-BAC-2 has a relative viability of 0.303. With NCI-H2085 the relative viability was 0.784. HCC-366 was tested, and the relative viability was 0.188. NCI-H1666 was tested, and the relative viability was 0.609. NCI-H596 was tested, and the relative viability was 0.834. In the case of LK-2, the relative viability is reported as 0.18. NCI-H2087 showed a relative viability of 0.238. For NCI-H1648, the relative viability was 0.615. SK-MES-1 gave a relative viability of 0.804. Work on H3255 yielded a relative viability of 0.655. With COR-L23 the relative viability was 0.247. COR-L 105 was tested, and the relative viability was 0.367. LOU-NH91 showed a relative viability of 0.681. For ChaGo-K-1, the relative viability was 0.205. NCI-H2170 showed a relative viability of 0.753. With NCI-H2405 the relative viability was 0.782. In the case of HCC-44, the relative viability is reported as 0.999. For NCI-H522, the relative viability was 0.609. SW 900 was tested, and the relative viability was 0.536. NCI-H2009 was tested, and the relative viability was 0.741. For NCI-H661, the relative viability was 0.341. SK-LU-1 was tested, and the relative viability was 0.303. Cell Line NCI-H2228 has a relative viability of 0.279. Work on NCI-H2023 yielded a relative viability of 0.411.

Same assay, conditions: first compound 2.53 µM
NCI-H2342 showed a relative viability of 0.465. Cell Line NCI-H1623 has a relative viability of 0.506. For NCI-H727, the relative viability was 0.767. NCI-H1650 gave a relative viability of 0.407. With NCI-H1993 the relative viability was 0.56. SW 1573 showed a relative viability of 0.181. Work on NCI-H838 yielded a relative viability of 0.285. Work on LCLC-103H yielded a relative viability of 0.477. In the case of NCI-H520, the relative viability is reported as 0.369. Cell Line NCI-H2126 has a relative viability of 0.938. For EMC-BAC-2, the relative viability was 0.337. NCI-H2085 was tested, and the relative viability was 0.886. With HCC-366 the relative viability was 0.113. Work on NCI-H1666 yielded a relative viability of 0.657. For NCI-H596, the relative viability was 0.818. With LK-2 the relative viability was 0.178. In the case of NCI-H2087, the relative viability is reported as 0.237. For NCI-H1648, the relative viability was 0.533. SK-MES-1 showed a relative viability of 0.924. With H3255 the relative viability was 0.604. For COR-L23, the relative viability was 0.197. Cell Line COR-L 105 has a relative viability of 0.361. Cell Line LOU-NH91 has a relative viability of 0.748. With ChaGo-K-1 the relative viability was 0.205. Work on NCI-H2170 yielded a relative viability of 0.774. NCI-H2405 gave a relative viability of 0.82. Cell Line HCC-44 has a relative viability of 1.03. NCI-H522 gave a relative viability of 0.539. Work on SW 900 yielded a relative viability of 0.599. With NCI-H2009 the relative viability was 0.842. For NCI-H661, the relative viability was 0.369. With SK-LU-1 the relative viability was 0.331. Cell Line NCI-H2228 has a relative viability of 0.233. In the case of NCI-H2023, the relative viability is reported as 0.347.

Same assay, conditions: first compound 8 µM
NCI-H2342 was tested, and the relative viability was 0.569. In the case of NCI-H1623, the relative viability is reported as 0.428. In the case of NCI-H727, the relative viability is reported as 0.441. Work on NCI-H1650 yielded a relative viability of 0.231. NCI-H1993 gave a relative viability of 0.548. In the case of SW 1573, the relative viability is reported as 0.0943. NCI-H838 gave a relative viability of 0.266. LCLC-103H showed a relative viability of 0.501. NCI-H520 was tested, and the relative viability was 0.42. Cell Line NCI-H2126 has a relative viability of 0.792. Cell Line EMC-BAC-2 has a relative viability of 0.302. NCI-H2085 gave a relative viability of 0.813. Work on HCC-366 yielded a relative viability of 0.125. Cell Line NCI-H1666 has a relative viability of 0.434. NCI-H596 was tested, and the relative viability was 1.04. With LK-2 the relative viability was 0.148. NCI-H2087 showed a relative viability of 0.267. NCI-H1648 showed a relative viability of 0.507. SK-MES-1 gave a relative viability of 0.935. H3255 showed a relative viability of 0.864. With COR-L23 the relative viability was 0.233. COR-L 105 was tested, and the relative viability was 0.378. Cell Line LOU-NH91 has a relative viability of 0.734. Cell Line ChaGo-K-1 has a relative viability of 0.244. Work on NCI-H2170 yielded a relative viability of 0.638. Work on NCI-H2405 yielded a relative viability of 0.711. Work on HCC-44 yielded a relative viability of 0.873. NCI-H522 gave a relative viability of 0.631. SW 900 gave a relative viability of 0.469. NCI-H2009 was tested, and the relative viability was 0.562. NCI-H661 gave a relative viability of 0.343. Cell Line SK-LU-1 has a relative viability of 0.336. Cell Line NCI-H2228 has a relative viability of 0.295. With NCI-H2023 the relative viability was 0.36.
